Test results: US8969389B2, “Substituted 6-methylnicotinamides as mGluR5 positive allosteric modulators” (Vanderbilt University, priority 2010, dated 2015)

Biological target: T1, rat mGluR5 (Rattus norvegicus, UniProt P31424)
T1 construct: expressed in transfected cells; host or cells: HEK (human embryonic kidney) cells
Test: Potentiation of glutamate response in HEK cells transfected with rat mGluR5 (Ca2+ fluorescence, FDSS)
Type: cell-based
Settings: (R) and (S) enantiomers, Tables 3A/3B; read-out: mGluR5 EC50
Experimental: Human embryonic kidney (HEK) cells transfected with rat mGluR5 were plated in clear bottom assay plates for assay in a Functional Drug Screening System (FDSS). In the alternative assay, HEK cells transfected with human mGluR5 (H10H cell line) were plated for assay in the FDSS. […] The cells were loaded with a Ca^2+-sensitive fluorescent dye (e.g., Fluo-4), and the plates were washed and placed in the FDSS instrument. After establishment of a fluorescence baseline for twelve seconds, the compounds of the present invention were added to the cells, and the response in cells was measured. Five minutes later, an mGluR5 agonist (e.g., glutamate, 3,5-dihydroxyphenylglycine, or quisqualate) was added to the cells, and the response of the cells was measured. Potentiation of the agonist response of mGluR5 by the compounds in the present invention was observed as an increase in response to non-maximal concentrations of agonist (here, glutamate) in the presence of compound compared to the response to agonist in the absence of compound.
The above described assay operated in two modes. In the first mode, a range of concentrations of the present compounds were added to cells, followed by a single fixed concentration of agonist. If a compound acted as a potentiator, an EC50 value for potentiation and a maximum extent of potentiation by the compound at this concentration of agonist was determined by non-linear curve fitting. In the second mode, several fixed concentrations of the present compounds were added to various wells on a plate, followed by a range of concentrations of agonist for each concentration of present compound; the EC50 values for the agonist at each concentration of compound were determined by non-linear curve fitting. A decrease in the EC50 value of the agonist with increasing concentrations of the present compounds (a leftward shift of the agonist concentration-response curve) is an indication of the degree of mGluR5 potentiation at a given concentration of the present compound. An increase in the EC50 value of the agonist with increasing concentrations of the present compounds (a rightward shift of the agonist concentration-response curve) is an indication of the degree of mGluR5 antagonism at a given concentration of the present compound. The second mode also indicates whether the present compounds also affect the maximum response to mGluR5 to agonists.

T1 sequence (P31424 21-1203): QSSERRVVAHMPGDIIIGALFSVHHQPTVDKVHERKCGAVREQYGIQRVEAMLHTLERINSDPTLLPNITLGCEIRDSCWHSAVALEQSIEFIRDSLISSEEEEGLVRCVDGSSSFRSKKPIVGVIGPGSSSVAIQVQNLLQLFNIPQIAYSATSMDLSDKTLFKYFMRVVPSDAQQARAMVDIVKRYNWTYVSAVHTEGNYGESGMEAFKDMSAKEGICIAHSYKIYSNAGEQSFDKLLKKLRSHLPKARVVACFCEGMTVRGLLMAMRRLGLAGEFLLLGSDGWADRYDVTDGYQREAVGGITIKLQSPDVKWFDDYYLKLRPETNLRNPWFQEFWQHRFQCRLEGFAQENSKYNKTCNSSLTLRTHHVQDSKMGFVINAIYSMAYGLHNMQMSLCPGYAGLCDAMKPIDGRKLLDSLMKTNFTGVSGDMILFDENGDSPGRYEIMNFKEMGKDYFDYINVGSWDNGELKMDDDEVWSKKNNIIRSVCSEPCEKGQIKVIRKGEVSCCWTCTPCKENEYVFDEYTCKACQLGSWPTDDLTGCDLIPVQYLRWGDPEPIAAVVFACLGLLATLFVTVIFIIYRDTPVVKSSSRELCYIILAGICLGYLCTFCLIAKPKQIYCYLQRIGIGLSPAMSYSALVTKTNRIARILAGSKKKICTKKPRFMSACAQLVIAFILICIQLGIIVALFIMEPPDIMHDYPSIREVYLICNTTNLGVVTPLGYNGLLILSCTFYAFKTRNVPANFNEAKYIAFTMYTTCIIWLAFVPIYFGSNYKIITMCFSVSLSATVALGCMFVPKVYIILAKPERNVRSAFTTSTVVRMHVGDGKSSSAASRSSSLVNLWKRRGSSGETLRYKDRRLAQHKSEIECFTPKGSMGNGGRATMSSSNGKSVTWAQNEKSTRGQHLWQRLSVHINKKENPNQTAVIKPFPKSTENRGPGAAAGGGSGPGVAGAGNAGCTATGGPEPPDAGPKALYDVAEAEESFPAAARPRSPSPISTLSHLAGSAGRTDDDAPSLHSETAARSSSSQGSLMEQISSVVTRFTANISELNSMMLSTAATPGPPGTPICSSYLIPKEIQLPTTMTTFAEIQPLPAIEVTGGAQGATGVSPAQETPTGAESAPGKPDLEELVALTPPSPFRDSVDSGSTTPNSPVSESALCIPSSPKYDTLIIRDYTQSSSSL

| EC50 | Structure (SMILES) |
| --- | --- |
| 0.13 µM | C[C@@H](NC(=O)c1ccc(COc2cccc(F)c2)nc1)C1CCCCC1 [Example 11a, (R)-N-(1-cyclohexylethyl)-6-((3-fluorophenoxy)methyl)nicotinamide] |
| > 10 µM | C[C@H](NC(=O)c1ccc(COc2cccc(F)c2)nc1)C1CCCCC1 [Example 11b, (S)-N-(1-cyclohexylethyl)-6-((3-fluorophenoxy)methyl)nicotinamide] |
| 0.309 µM | C[C@@H](NC(=O)c1ccc(COc2cc(F)cc(F)c2)nc1)C1CCCCC1 [Example 12a, (R)-N-(1-cyclohexylethyl)-6-((3,5-difluorophenoxy)methyl)nicotinamide] |
| > 10 µM | C[C@H](NC(=O)c1ccc(COc2cc(F)cc(F)c2)nc1)C1CCCCC1 [Example 12b, (S)-N-(1-cyclohexylethyl)-6-((3,5-difluorophenoxy)methyl)nicotinamide] |
| 0.081 µM | C[C@@H](NC(=O)c1ccc(COc2cccc(F)c2)nc1)C(C)(C)C [Example 13a, (R)-N-(3,3-dimethylbutan-2-yl)-6-((3-fluorophenoxy)methyl)nicotinamide] |
| > 10 µM | C[C@H](NC(=O)c1ccc(COc2cccc(F)c2)nc1)C(C)(C)C [Example 13b, (S)-N-(3,3-dimethylbutan-2-yl)-6-((3-fluorophenoxy)methyl)nicotinamide] |

Same assay, conditions: HEK cells transfected with rat mGluR5; read-out: rmGlu5 PAM EC50

| EC50 | Structure (SMILES) |
| --- | --- |
| 0.0759 µM | O=C(NC1CC2CCC1C2)c1ccc(COc2cccc(F)c2)nc1 (stereo not shown) |
| 0.138 µM | C[C@@H](NC(=O)c1ccc(COc2cccc(F)c2)nc1)C1CCC1 |
| 0.158 µM | CC(C)[C@@H](C)NC(=O)c1ccc(COc2cccc(F)c2)nc1 |
| 0.16 µM | C[C@@H](NC(=O)c1ccc(COc2ccccc2F)nc1)C1CCCCC1 |
| 0.188 µM | CC(NC(=O)c1ccc(COc2ccccc2)nc1)C1CCCCC1 (stereo not shown) |
| 0.21 µM | C[C@@H](NC(=O)c1ccc(COc2cccc(Cl)c2)nc1)C1CCCCC1 |
| 0.22 µM | C[C@@H](NC(=O)c1ccc(COc2cccc(C#N)c2)nc1)C1CCCCC1 |
| 0.288 µM | O=C(NC1C2CC3CC(C2)CC1C3)c1ccc(COc2ccccc2)nc1 (stereo not shown) |
| 0.302 µM | CC(C)(C)CCNC(=O)c1ccc(COc2cccc(F)c2)nc1 |
| 0.36 µM | C[C@@H](NC(=O)c1ccc(COc2ccc(F)cc2)nc1)C1CCCCC1 |
| 0.447 µM | O=C(NC1CCCCC1)c1ccc(COc2cccc(F)c2)nc1 |
| 0.501 µM | O=C(Nc1ccccc1F)c1ccc(COc2ccccc2)nc1 |
| 0.501 µM | O=C(Nc1ccc(F)cc1F)c1ccc(COc2ccccc2)nc1 |
| 0.575 µM | O=C(NCC1CCCCC1)c1ccc(COc2ccccc2)nc1 |
| 0.603 µM | O=C(NC12CC3CC(CC(C3)C1)C2)c1ccc(COc2ccccc2)nc1 |
| 0.912 µM | O=C(NC1(c2ccccc2)CCC1)c1ccc(COc2cccc(F)c2)nc1 |
| 0.966 µM | CC(C)CCNC(=O)c1ccc(COc2ccccc2)nc1 |
| 1.06 µM | C[C@@H](NC(=O)c1ccc(COc2cccc(F)c2)nc1)C1CC1 |
| 1.2 µM | O=C(Nc1nccs1)c1ccc(COc2ccccc2)nc1 |
| 1.2 µM | COc1cccc(OCc2ccc(C(=O)N[C@H](C)C3CCCCC3)cn2)c1 |
| 1.26 µM | O=C(NC(C1CC1)C1CC1)c1ccc(COc2cccc(F)c2)nc1 |

| EC50 | Structure (SMILES) |
| --- | --- |
| 1.51 µM | O=C(Nc1ccc(F)cn1)c1ccc(COc2ccccc2)nc1 |
| 1.58 µM | CC(C)(C)CCNC(=O)c1ccc(COc2cc(F)cc(F)c2)nc1 |
| 1.7 µM | CC(C)CNC(=O)c1ccc(COc2ccccc2)nc1 |
| 1.9 µM | O=C(NC(C1CC1)C(F)(F)F)c1ccc(COc2cccc(F)c2)nc1 (stereo not shown) |
| 2.5 µM | C[C@@H](NC(=O)c1ccc(COc2ccc(C#N)cc2)nc1)C1CCCCC1 |
| 2.6 µM | C[C@@H](NC(=O)c1ccc(COc2ccncc2)nc1)C1CCCCC1 |
| 2.88 µM | C[C@H](NC(=O)c1ccc(COc2ccccc2)nc1)C1CCCCC1 |
| 3.24 µM | C[C@@H](NC(=O)c1ccc(COc2cccc(F)c2)nc1)C1CCOCC1 |
| 3.31 µM | CC[C@@H](C)NC(=O)c1ccc(COc2cccc(F)c2)nc1 |
| 3.39 µM | O=C(NC1CCC1)c1ccc(COc2cc(F)cc(F)c2)nc1 |
| 3.4 µM | COc1ccccc1OCc1ccc(C(=O)N[C@H](C)C2CCCCC2)cn1 |
| 3.47 µM | O=C(NC1CCC1)c1ccc(COc2cccc(F)c2)nc1 |
| 4.68 µM | O=C(NC1CCC1)c1ccc(COc2ccccc2)nc1 |
| 5.25 µM | O=C(Nc1ccccn1)c1ccc(COc2ccccc2)nc1 |
| > 10 µM | COCC(C)NC(=O)c1ccc(COc2cccc(F)c2)nc1 (stereo not shown) |
| > 10 µM | CC1(C)CC(CNC(=O)c2ccc(COc3cccc(F)c3)nc2)CCO1 (stereo not shown) |
| > 10 µM | O=C(Nc1ccncc1)c1ccc(COc2ccccc2)nc1 |
| > 10 µM | O=C(Nc1ccc(Cl)cn1)c1ccc(COc2ccccc2)nc1 |
| > 10 µM | O=C(Nc1cccc(F)c1)c1ccc(COc2ccccc2)nc1 |
| > 10 µM | O=C(Nc1ccc(F)cc1)c1ccc(COc2ccccc2)nc1 |
| > 10 µM | O=C(Nc1cc(F)cc(F)c1)c1ccc(COc2ccccc2)nc1 |

| EC50 | Structure (SMILES) |
| --- | --- |
| > 10 µM | O=C(Nc1cccc(F)c1F)c1ccc(COc2ccccc2)nc1 |
| > 10 µM | O=C(Nc1ccc(Cl)cc1F)c1ccc(COc2ccccc2)nc1 |
| > 10 µM | O=C(Nc1cccc(Cl)c1)c1ccc(COc2ccccc2)nc1 |
| > 10 µM | O=C(Nc1ccc(Cl)cc1)c1ccc(COc2ccccc2)nc1 |
| > 10 µM | O=C(Nc1cccc(C(F)(F)F)c1)c1ccc(COc2ccccc2)nc1 |
| > 10 µM | O=C(Nc1ncccc1F)c1ccc(COc2ccccc2)nc1 |
| > 10 µM | O=C(Nc1nncs1)c1ccc(COc2ccccc2)nc1 |
| > 10 µM | O=C(NCCc1ccc(Cl)cc1)c1ccc(COc2ccccc2)nc1 |
| > 10 µM | CN(C)CCCNC(=O)c1ccc(COc2ccccc2)nc1 |
| > 10 µM | COCCCNC(=O)c1ccc(COc2ccccc2)nc1 |
| > 10 µM | O=C(NCCN1CCCCC1)c1ccc(COc2ccccc2)nc1 |
| > 10 µM | O=C(NCCN1CCOCC1)c1ccc(COc2ccccc2)nc1 |
| > 10 µM | O=C(NCCCN1CCOCC1)c1ccc(COc2ccccc2)nc1 |
| > 10 µM | CC(C)NC(=O)c1ccc(COc2ccccc2)nc1 |
| > 10 µM | COCCNC(=O)c1ccc(COc2ccccc2)nc1 |
| > 10 µM | O=C(NCc1ccccn1)c1ccc(COc2ccccc2)nc1 |
| > 10 µM | O=C(NCCc1ccccn1)c1ccc(COc2ccccc2)nc1 |
| > 10 µM | N#Cc1cc(F)cc(OCc2ccc(C(=O)NC3(c4ccccc4)CCC3)cn2)c1 |
| > 10 µM | CC(C)NC(=O)c1ccc(COc2cc(F)cc(C#N)c2)nc1 |
| > 10 µM | CC(C)(C)CCNC(=O)c1ccc(COc2cc(F)cc(C#N)c2)nc1 |
| > 10 µM | C[C@H](NC(=O)c1ccc(COc2cc(F)cc(C#N)c2)nc1)C1CCCCC1 |

| EC50 | Structure (SMILES) |
| --- | --- |
| > 10 µM | C[C@@H](NC(=O)c1ccc(COc2cc(F)cc(C#N)c2)nc1)C1CCCCC1 |
| > 10 µM | N#Cc1cc(F)cc(OCc2ccc(C(=O)NC3CCC3)cn2)c1 |
| > 10 µM | O=C(Nc1nccs1)c1ccc(COc2cc(F)cc(F)c2)nc1 |
| > 10 µM | O=C(NC1(c2ccccc2)CCC1)c1ccc(COc2cc(F)cc(F)c2)nc1 |
| > 10 µM | CC(C)NC(=O)c1ccc(COc2cc(F)cc(F)c2)nc1 |
| > 10 µM | O=C(NC1CCCCC1)c1ccc(COc2cc(F)cc(F)c2)nc1 |
| > 10 µM | O=C(Nc1nccs1)c1ccc(COc2cccc(F)c2)nc1 |
| > 10 µM | CC(C)NC(=O)c1ccc(COc2cccc(F)c2)nc1 |
| > 10 µM | O=C(NC1(c2ccccc2)CCC1)c1ccc(COc2ccccc2)nc1 |
| > 10 µM | O=C(NCC1CC1)c1ccc(COc2ccccc2)nc1 |
| > 10 µM | O=C(N[C@H](C1CC1)C(F)(F)F)c1ccc(COc2cccc(F)c2)nc1 |
| > 10 µM | C[C@@H](NC(=O)c1ccc(COc2ccccc2Cl)nc1)C1CCCCC1 |
| > 10 µM | C[C@@H](NC(=O)c1ccc(COc2ccccc2C#N)nc1)C1CCCCC1 |
| > 10 µM | C[C@@H](NC(=O)c1ccc(COc2ccccn2)nc1)C1CCCCC1 |
| 0.0813 µM | C[C@@H](NC(=O)c1ccc(COc2cccc(F)c2)nc1)C(C)(C)C [drawing 65] |
| 0.12 µM | O=C(NC1CC2CCC1C2)c1ccc(COc2ccccc2)nc1 (stereo not shown) [drawing 66] |
| 0.13 µM | C[C@@H](NC(=O)c1ccc(COc2cccc(F)c2)nc1)C1CCCCC1 [drawing 67] |
| 0.146 µM | C[C@@H](NC(=O)c1ccc(COc2ccccc2)nc1)C1CCCCC1 [drawing 69] |
| 0.151 µM | O=C(NC1CC2CCC1C2)c1ccc(COc2ccccc2)nc1 (stereo not shown) [drawing 70] |
| 0.17 µM | C[C@@H](NC(=O)c1ccc(COc2cccc(F)c2)nc1)C1CCCCC1 [drawing 73] |
| 0.172 µM | C[C@@H](NC(=O)c1ccc(COc2cccc(F)c2)nc1)C1CCCCC1 [drawing 74] |

Same assay, conditions: S configuration enantiomer; read-out: mGluR5 potentiator EC50

| EC50 | Structure (SMILES) |
| --- | --- |
| > 10 µM | C[C@H](NC(=O)c1ccc(COc2cccc(F)c2)nc1)C1CCCCC1 [Example 11b, (S)-N-(1-cyclohexylethyl)-6-((3-fluorophenoxy)methyl)nicotinamide] |
